Test results from ChEMBL document CHEMBL3244164, “Synthesis and analgesic activity of 1,3-dihydro-3-(substituted phenyl)imidazo[4,5-b]pyridin-2-ones and 3-(substituted phenyl)-1,2,3-triazolo[4,5-b]pyridines” (J Med Chem, 1978).
Activity calls are given as the source filed them.

Legend:
Rattus norvegicus [1] = assay: Analgesic activity in Sprague-Dawley rat brewer's yeast treated foot assessed as response threshold at 8 mg/kg, po; assay type: functional
Rattus norvegicus [2] = assay: Analgesic activity in Sprague-Dawley rat normal foot assessed as response threshold at 32 mg/kg, po; assay type: functional
Rattus norvegicus [3] = assay: Analgesic activity in Sprague-Dawley rat normal foot assessed as response threshold at 8 to 16 mg/kg, po; assay type: functional; details: dose mg/kg 8-16
Rattus norvegicus [4] = assay: Analgesic activity in Sprague-Dawley rat brewer's yeast treated foot assessed as response threshold at 8 to 16 mg/kg, po; assay type: functional; details: dose mg/kg 8-16
Rattus norvegicus [5] = assay: Analgesic activity in Sprague-Dawley rat normal foot assessed as response threshold at 16 to 32 mg/kg, po; assay type: functional; details: dose mg/kg 16-32
Rattus norvegicus [6] = assay: Analgesic activity in Sprague-Dawley rat brewer's yeast treated foot assessed as response threshold at 16 to 32 mg/kg, po; assay type: functional; details: dose mg/kg 16-32
Rattus norvegicus [7] = assay: Antiinflammatory activity in Sprague-Dawley rat assessed as inhibition of carrageenan-induced paw edema at 30 mg/kg, po; assay type: functional
Rattus norvegicus [8] = assay: Antiarthritic activity in Lewis rat assessed as inhibition of adjuvant-induced paw swelling at 50 mg/kg, po qd for 13 days measured on day 14; assay type: functional
Mus musculus [9] = assay: Analgesic activity in naloxone treated mouse assessed as withdrawal latency at 12.5 to 75 mg/kg, po; assay type: functional, organism-based
Mus musculus [10] = assay: Analgesic activity in mouse assessed as withdrawal latency at 12.5 to 75 mg/kg, po by Haffner tail clamp method; assay type: functional, organism-based
Rattus norvegicus [11] = assay: Analgesic activity in Sprague-Dawley rat brewer's yeast treated foot assessed as response threshold at 32 mg/kg, po; assay type: functional
Rattus norvegicus [12] = assay: Analgesic activity in Sprague-Dawley rat assessed as increase in mean reaction time at 5 mg/kg, po after 1 hr relative to control; assay type: functional
Rattus norvegicus [13] = assay: Analgesic activity in Sprague-Dawley rat assessed as increase in mean reaction time at 5 mg/kg, po after 2 hrs relative to control; assay type: functional
Rattus norvegicus [14] = assay: Analgesic activity in Sprague-Dawley rat assessed as increase in mean reaction time at 5 mg/kg, po after 3 hrs relative to control; assay type: functional
Rattus norvegicus [15] = assay: Analgesic activity in Sprague-Dawley rat assessed as increase in mean reaction time at 5 mg/kg, po after 4 hrs relative to control; assay type: functional
Rattus norvegicus [16] = assay: Analgesic activity in Sprague-Dawley rat assessed as increase in mean reaction time at 5 mg/kg, po after 5 hrs relative to control; assay type: functional
Rattus norvegicus [17] = assay: Analgesic activity in Sprague-Dawley rat assessed as increase in mean reaction time at 10 mg/kg, po after 1 hr relative to control; assay type: functional
Rattus norvegicus [18] = assay: Analgesic activity in Sprague-Dawley rat assessed as increase in mean reaction time at 10 mg/kg, po after 2 hrs relative to control; assay type: functional
Rattus norvegicus [19] = assay: Analgesic activity in Sprague-Dawley rat assessed as increase in mean reaction time at 10 mg/kg, po after 3 hrs relative to control; assay type: functional
Rattus norvegicus [20] = assay: Analgesic activity in Sprague-Dawley rat assessed as increase in mean reaction time at 10 mg/kg, po after 4 hrs relative to control; assay type: functional
Rattus norvegicus [21] = assay: Analgesic activity in Sprague-Dawley rat assessed as increase in mean reaction time at 10 mg/kg, po after 5 hrs relative to control; assay type: functional
Rattus norvegicus [22] = assay: Analgesic activity in Sprague-Dawley rat assessed as increase in mean reaction time at 20 mg/kg, po after 1 hr relative to control; assay type: functional
Rattus norvegicus [23] = assay: Analgesic activity in Sprague-Dawley rat assessed as increase in mean reaction time at 20 mg/kg, po after 2 hrs relative to control; assay type: functional
Rattus norvegicus [24] = assay: Analgesic activity in Sprague-Dawley rat assessed as increase in mean reaction time at 20 mg/kg, po after 3 hrs relative to control; assay type: functional
Rattus norvegicus [25] = assay: Analgesic activity in Sprague-Dawley rat assessed as increase in mean reaction time at 20 mg/kg, po after 4 hrs relative to control; assay type: functional
Rattus norvegicus [26] = assay: Analgesic activity in Sprague-Dawley rat assessed as increase in mean reaction time at 20 mg/kg, po after 5 hrs relative to control; assay type: functional

CN1CC[C@]23c4c5ccc(O)c4O[C@H]2[C@@H](O)C=C[C@H]3[C@H]1C5 [MORPHINE]
Activity (Rattus norvegicus [1]): >34 mm
Activity (Rattus norvegicus [2]): <40 mm
Activity (Rattus norvegicus [3]): >50 mm

CC(C)(C)Oc1nc2cccnc2n1-c1ccc2c(c1)OCO2
Activity (Rattus norvegicus [4]): >25 mm
Activity (Rattus norvegicus [2]): <40 mm

Fc1ccc(-n2nnc3cccnc32)c(F)c1
Activity (Rattus norvegicus [4]): >25 mm
Activity (Rattus norvegicus [5]): >40 mm

CCCn1c(=O)n(-c2ccc3c(c2)OCO3)c2ncccc21
Activity (Rattus norvegicus [4]): >25 mm
Activity (Rattus norvegicus [3]): >50 mm

Cc1ccc(-n2c(=O)[nH]c3cccnc32)c(C)c1
Activity (Rattus norvegicus [6]): >25 mm
Activity (Rattus norvegicus [2]): <40 mm

CC(C)(C)n1c(=O)n(-c2ccc3c(c2)OCO3)c2ncccc21
Activity (Rattus norvegicus [6]): >25 mm
Activity (Rattus norvegicus [5]): >40 mm

COc1ccc2c3c1O[C@H]1[C@@H](O)C=C[C@H]4[C@@H](C2)N(C)CC[C@@]341 [CODEINE]
Activity (Rattus norvegicus [4]): >25 mm
Activity (Rattus norvegicus [5]): >40 mm

O=c1n(CCO)c2cccnc2n1-c1ccc2c(c1)OCO2
Activity (Rattus norvegicus [4]): >25 mm
Activity (Rattus norvegicus [5]): >40 mm

O=c1n(CO)c2cccnc2n1-c1ccc2c(c1)OCO2
Activity (Rattus norvegicus [6]): >25 mm
Activity (Rattus norvegicus [2]): 40 mm

Cc1ccc(-n2c(=O)[nH]c3cccnc32)cc1
Activity (Rattus norvegicus [6]): >25 mm
Activity (Rattus norvegicus [5]): >40 mm

CCCn1c(=O)n(-c2ccccc2)c2ncccc21
Activity (Rattus norvegicus [6]): >25 mm
Activity (Rattus norvegicus [2]): 40 mm

O=c1n(-c2ccc3c(c2)OCO3)c2ncccc2n1C1CCCC1
Activity (Rattus norvegicus [4]): >25 mm
Activity (Rattus norvegicus [5]): >40 mm

O=c1[nH]c2cccnc2n1-c1ccccc1
Activity (Rattus norvegicus [4]): >25 mm
Activity (Rattus norvegicus [2]): 40 mm

Cn1c(=O)n(-c2ccc3c(c2)OCO3)c2ncccc21
Activity (Rattus norvegicus [6]): >25 mm
Activity (Rattus norvegicus [3]): >50 mm

c1cnc2c(c1)nnn2-c1ccc2c(c1)OCCO2
Activity (Rattus norvegicus [6]): >25 mm
Activity (Rattus norvegicus [2]): <40 mm

CCCCC1C(=O)N(c2ccccc2)N(c2ccccc2)C1=O [PHENYLBUTAZONE]
inhibition in vivo at 30 mg/kg (Rattus norvegicus [7]): 39%
inhibition in vivo at 50 mg/kg (Rattus norvegicus [8]): 78%

CC(C)Cn1c(=O)n(-c2ccc3c(c2)OCO3)c2ncccc21
Activity (Rattus norvegicus [6]): >25 mm
Activity (Rattus norvegicus [2]): <40 mm

Nc1ccc(-n2c(=O)[nH]c3cccnc32)cc1
Activity (Rattus norvegicus [6]): >25 mm
Activity (Rattus norvegicus [2]): <40 mm

Fc1ccc(F)c(-n2nnc3cccnc32)c1
Activity (Rattus norvegicus [6]): >25 mm
Activity (Rattus norvegicus [2]): <40 mm

CCn1c(=O)n(-c2ccc3c(c2)OCO3)c2ncccc21
Activity (Rattus norvegicus [6]): >25 mm
Activity (Rattus norvegicus [2]): <40 mm

C=CCn1c(=O)n(-c2ccc3c(c2)OCO3)c2ncccc21
Activity (Mus musculus [9]): inactive
Activity (Mus musculus [10]): Active

C=C(Cl)Cn1c(=O)n(-c2ccc3c(c2)OCO3)c2ncccc21
Activity (Rattus norvegicus [6]): >25 mm
Activity (Rattus norvegicus [5]): >40 mm

CC(C)n1c(=O)n(-c2ccc3c(c2)OCO3)c2ncccc21
Activity (Rattus norvegicus [1]): >34 mm
Activity (Rattus norvegicus [3]): >50 mm

CC(C)Cc1ccc(-n2nnc3cccnc32)cc1
Activity (Rattus norvegicus [11]): <25 mm
Activity (Rattus norvegicus [2]): <40 mm

O=c1[nH]c2cccnc2n1-c1ccc2c(c1)OCO2
Activity (Rattus norvegicus [1]): >34 mm
Activity (Rattus norvegicus [3]): >50 mm
Time (Rattus norvegicus [12]): 1.5 s
Time (Rattus norvegicus [13]): 2.1 s
Time (Rattus norvegicus [14]): -0.1 s
Time (Rattus norvegicus [15]): 1.3 s
Time (Rattus norvegicus [16]): 0.4 s
Time (Rattus norvegicus [17]): 2 s
Time (Rattus norvegicus [18]): 3.9 s
Time (Rattus norvegicus [19]): 2.8 s
Time (Rattus norvegicus [20]): 2.3 s
Time (Rattus norvegicus [21]): -0.2 s
Time (Rattus norvegicus [22]): 6 s
Time (Rattus norvegicus [23]): 15 s
Time (Rattus norvegicus [24]): 20.4 s
Time (Rattus norvegicus [25]): 20 s
Time (Rattus norvegicus [26]): 18.3 s
Activity (Mus musculus [9]): inactive
Activity (Mus musculus [10]): Active
inhibition in vivo at 30 mg/kg (Rattus norvegicus [7]): 37%
inhibition in vivo at 50 mg/kg (Rattus norvegicus [8]): 68.3%

C=CCn1c(=O)n(-c2ccc3c(c2)CCC3)c2ncccc21
Activity (Rattus norvegicus [11]): <25 mm
Activity (Rattus norvegicus [2]): <40 mm

Cc1ccc(-n2nnc3cccnc32)c(C)c1
Activity (Rattus norvegicus [11]): <25 mm
Activity (Rattus norvegicus [2]): <40 mm

CCCCNC(=O)n1c(=O)n(-c2ccc3c(c2)OCO3)c2ncccc21
Activity (Rattus norvegicus [11]): <25 mm
Activity (Rattus norvegicus [2]): <40 mm

Cc1c(Cl)cccc1-n1nnc2cccnc21
Activity (Rattus norvegicus [11]): <25 mm
Activity (Rattus norvegicus [2]): <40 mm

C#CCn1c(=O)n(-c2ccc3c(c2)OCO3)c2ncccc21
Activity (Rattus norvegicus [11]): <25 mm
Activity (Rattus norvegicus [2]): <40 mm

O=c1[nH]c2cccnc2n1-c1ccccc1Cl
Activity (Rattus norvegicus [6]): >25 mm
Activity (Rattus norvegicus [2]): <40 mm

C=CCn1c(=O)n(-c2cccc(C(=O)OCC)c2)c2ncccc21
Activity (Rattus norvegicus [11]): <25 mm
Activity (Rattus norvegicus [2]): <40 mm

Clc1ccc2nnn(-c3ccccc3)c2n1
Activity (Rattus norvegicus [11]): <25 mm
Activity (Rattus norvegicus [2]): <40 mm

CC(O)Cn1c(=O)n(-c2ccc3c(c2)OCO3)c2ncccc21 (stereo unspecified)
Activity (Rattus norvegicus [6]): >25 mm
Activity (Rattus norvegicus [2]): 40 mm

CCOCn1c(=O)n(-c2ccc3c(c2)OCO3)c2ncccc21
Activity (Rattus norvegicus [11]): <25 mm
Activity (Rattus norvegicus [2]): <40 mm

c1cnc2c(c1)nnn2-c1ccc2c(c1)COC2
Activity (Rattus norvegicus [11]): <25 mm
Activity (Rattus norvegicus [2]): <40 mm

Cc1cc2c(cc1-n1nnc3cccnc31)OCO2
Activity (Rattus norvegicus [11]): <25 mm
Activity (Rattus norvegicus [2]): <40 mm

O=c1n(CC2CC2)c2cccnc2n1-c1ccc2c(c1)OCO2
Activity (Rattus norvegicus [6]): >25 mm
Activity (Rattus norvegicus [5]): >40 mm

Fc1cccc(-n2nnc3cccnc32)c1
Activity (Rattus norvegicus [11]): <25 mm
Activity (Rattus norvegicus [2]): <40 mm

Oc1ccccc1-n1nnc2cccnc21
Activity (Rattus norvegicus [11]): <25 mm
Activity (Rattus norvegicus [2]): <40 mm

c1cnc2c(c1)nnn2-c1ccc2c(c1)OCO2
Activity (Rattus norvegicus [11]): 25 mm
Activity (Rattus norvegicus [2]): 40 mm

Cc1ccc(-n2c(=O)[nH]c3cccnc32)cc1C
Activity (Rattus norvegicus [11]): <25 mm
Activity (Rattus norvegicus [2]): <40 mm

O=c1n(CCC2CCCCC2)c2cccnc2n1-c1ccc2c(c1)OCO2
Activity (Rattus norvegicus [11]): <25 mm
Activity (Rattus norvegicus [2]): <40 mm

Cc1ccc(-n2nnc3cccnc32)cc1
Activity (Rattus norvegicus [11]): <25 mm
Activity (Rattus norvegicus [2]): <40 mm

O=c1[nH]c2cccnc2n1-c1cccc2c1CCCC2
Activity (Rattus norvegicus [11]): <25 mm
Activity (Rattus norvegicus [2]): <40 mm

Cc1ccc(-n2nnc3cccnc32)cc1C
Activity (Rattus norvegicus [11]): <25 mm
Activity (Rattus norvegicus [2]): <40 mm

Fc1ccccc1-n1nnc2cccnc21
Activity (Rattus norvegicus [4]): >25 mm
Activity (Rattus norvegicus [2]): <40 mm

C=CCn1c(=O)n(-c2ccccc2F)c2ncncc21
Activity (Rattus norvegicus [11]): <25 mm
Activity (Rattus norvegicus [2]): <40 mm
